Laboratory results: patent US10806725B2, “Small molecule inhibitors of XBP1 splicing” (GEORGETOWN UNIVERSITY, priority 2011, dated 2020)

Columns and labels:
Assay type in all cases: cell-based
[1] = tested on: antiestrogen resistant LCC9 cells; assay: Crystal violet cell viability assay, antiestrogen resistant LCC9 cells; conditions: 72 hours, normalized to vehicle-treated cells, compared with NPPTA
Protocol: To measure cell viability, antiestrogen resistant LCC9 cells were plated in 96-well plastic tissue culture plates at a density of 5×10^3 cells/well. Twenty-four hours after plating, cells were treated with 3-naphthoyl-1,1,1-trifluoroacetone (NPPTA) and the analogs (i.e., Compound JS-011, Compound JS-012, Compound JS-013, Compound JS-014, Compound JS-015, Compound JS-020). After 72 hours, the cell culture media was removed and plates were stained with […] of a solution containing 0.5% crystal violet and 25% methanol, rinsed with deionized water, dried overnight, and resuspended in […] citrate buffer (0.1 M sodium citrate in 50% ethanol) to assess plating efficiency. Intensity of crystal violet staining, assessed at 570 nm and quantified using a Vmax Kinetic Microplate Reader and Softmax software (Molecular Devices Corp., Menlo Park, Calif.), was directly proportional to cell number. Data were normalized to vehicle-treated cells and are presented in FIG. 8 as the mean±SE from representative experiments.

[2] = tested on: MCF 10A, a non-breast cancer cell line; assay: Crystal violet dose-response cell proliferation assay, MCF 10A control cells; conditions: MCF 10A cells; 10 μM, 25 μM or 50 μM for 72 h
Protocol: (§1) Compound Sd-6 was tested in a dose-response assay using different breast cancer cell lines, including MCF7/LCC1, MCF7/LCC9, T47D, and MCF-7. MCF7/LCC1 is an ERα-positive estrogen-independent, antiestrogen-responsive breast cancer cell line. MCF7/LCC9 is an ERα-positive estrogen-independent, antiestrogen-resistant breast cancer cell line. MCF- is an ERα-positive estrogen-dependent, antiestrogen-responsive breast cancer cell line. Cells were first plated in 96-well plastic tissue culture plates (10,000 cells per well). The cells were treated with 500 nM of Compound Sd-6 or the vehicle alone (DMSO) for 48 h. Following treatment, the cells were washed with PBS, stained with a crystal violet staining solution, and allowed to dry for 48-72 hrs. After drying, sodium citrate buffer was added to each well and allowed to incubate for 5 min at room temperature. The absorbance was measured at 450 nm using a microplate reader (Biorad; Hercules, Calif.).
Compound Sd-6 was tested in a dose-response assay using different breast cancer cell lines, including MCF7/LCC1, MCF7/LCC9, T47D, MCF-7, MCF-7/RR, LY2, and MDA-MB-231. MCF 10A, a non-breast cancer cell line, served as the control. The cells were first plated in 96-well plastic tissue culture plates (10,000 cells per well). […] Following treatment, cell proliferation was determined using a crystal violet assay as described in Example 1.

[3] = tested on: MCF7/LCC1 antiestrogen-responsive breast cancer cells; assay: Crystal violet cell proliferation assay, MCF7/LCC1 cells (combination with antiestrogens); conditions: 72 h, >1.0 indicates synergistic interaction
Protocol: as §1
(§2) Compound Sd-6 was tested in a dose-response assay using MCF7/LCC1 antiestrogen-responsive breast cancer cells and MCF7/LCC9 antiestrogen-resistant breast cancer cells. Cells were first plated in 96-well plastic tissue culture plates (10,000 cells per well). […] Following treatment, cell proliferation was determined using a crystal violet assay as described above. […]

[4] = tested on: MCF7/LCC9 antiestrogen-resistant breast cancer cells; assay: Crystal violet cell proliferation assay, MCF7/LCC9 cells (combination with antiestrogens); conditions: 10 μM Compound Sd-6 combined with 100 nM Faslodex/ICI 182,780 (ICI), 72 h, >1.0 indicates synergistic interaction
Protocol: as §1, §2

## O=C(CSc1nc(-c2cccnc2)n[nH]1)Nc1ccc(Oc2ccc(Cl)cc2)cc1 [JS-014]
[1]
  Inhibition of LCC9 cells (cell viability, crystal violet): effective, and more potent than NPPTA

## O=C(CSc1nc(-c2cccnc2)n[nH]1)Nc1ccc(Oc2ccccc2)cc1 [Compound Sd-6]
[2]
  Response of relative cell proliferation to compound: did not respond
[3]; 10 μM Compound Sd-6 combined with 100 nM Faslodex/ICI 182,780 (ICI)
  RI value (Sexp/Sobs) for inhibition of cell proliferation: 1.44
[3]; 10 μM Compound Sd-6 combined with 100 nM Tamoxifen (TAM)
  RI value (Sexp/Sobs) for inhibition of cell proliferation: 1.82
[4]
  RI value (Sexp/Sobs) for inhibition of cell proliferation: 1.27

## O=C(CSc1nc(-c2cccnc2)n[nH]1)Nc1ccc(Oc2ccc(C(F)(F)F)cc2)cc1 [JS-020]
[1]
  Inhibition of LCC9 cells (cell viability, crystal violet): effective, and more potent than NPPTA
